Laboratory results as given in article PMC7055224, “High-Throughput Screening to Predict Chemical-Assay Interference” (Scientific Reports, 2020).
Read-outs that look alike come from different tables or passages of the source.

Columns and labels:
firefly-Luciferase = molecular target: T1, firefly-Luciferase (Photinus pyralis, UniProt P08659); assay: Luciferase (biochemical) qHTS assay, tox21-luc-biochem-p1, cell-free; settings: for AC50: no unit printed in the picture (text uses µM)
T1 construct: purchased Sigma-Aldrich (St. Louis, MO)
Source text: (§1) Three assay platforms were applied to analyze luciferase and fluorescence interference patterns using the Tox21 chemical screening library. […] The Tox21 chemical library (8,305 unique substances) was screened in triplicate concentration response in all assays, with concurrent cytotoxicity measurements where applicable.
The substrate D-Luciferin and the enzyme firefly-Luciferase were purchased from Sigma-Aldrich (St. Louis, MO). The positive control compound (PTC-124) was purchased from Santa Cruz Biotechnology, Inc. (Dallas, TX).
Three µL of the substrate (mixture containing 50 mM Tris-acetate pH 7.6, 13.3 mM magnesium acetate, 0.01 mM D-luciferin, 0.01 mM ATP, 0.01% Tween, 0.05% BSA and distilled H2O) was dispensed into medium-binding white/solid 1,536-well plates (Greiner Bio-One North America Inc., Monroe, NC) using a Flying Reagent Dispenser, FRD (Aurora Discovery, Carlsbad, CA). Then 23 nL of the test compounds (into 5–48 columns), PTC-124 and/or DMSO (into 1–4 columns) were transferred to the assay plates using a Pintool station (Wako, San Diego, CA). The positive control plate format is, column-1: sixteen-concentration two-fold titration of PTC-124 from 0.035 nM to 1.15 µM with duplicate points; columns-2 & 3 for the top half portions: 0.58 and 1.15 µM PTC-124 respectively and DMSO in the rest. Compound addition was followed by the addition of 1 μl of 10 nM enzyme (mixture containing 50 mM Tris-acetate, 0.04 µM firefly-Luciferase and distilled H2O) by using an FRD to all the wells of assay plate except in the 4th column which received the buffer instead. After 5 min incubation at room temperate, luminescence intensity was measured by a Viewlux plate reader (Perkin Elmer, Waltham, MA). Data were expressed as relative luminescence units. Each test compound was measured at 15 concentrations ranging from 1.5 nM to 115 µM and in triplicate.
For primary data analysis, raw plate reads for each titration point were first normalized relative to DMSO-only wells that received firefly-Luciferase (basal, 0%) and PTC-124 control wells that received firefly-Luciferase (0.58 µM, −100%) and then corrected by applying a pattern correction algorithm using compound-free control plates (DMSO plates). Concentration-response titration points for each compound replicate were fitted to the Hill equation and concentrations of half-maximal inhibition activity (IC50) and maximal response (efficacy) values were calculated; the mean of the IC50s was used as the representative value. Concentration response curves were designated as class 1–4 based on the quality of the fit, the number of points above background, and the response efficacy, as previously described (summarized in Supporting Information Table S1)[18],[20].
(§2) Finally, for autofluorescence assays, to avoid indications of generalized cell stress without specific biomolecular interactions, only AC50 below the burst cutoff defined in[23] were considered. Indeed, activity above this limit may result from triggering cell stress pathways, chemical reactivity, physico-chemical disruption of proteins or membranes, or broad low-affinity non-covalent interactions and not from a specific technology interference reaction. This filter was applied to distinguish chemical-structure driven autofluorescence from the increase in signal that has been observed due to cell stress. The distribution of the curve classes for active chemicals is presented in Supporting Information Fig. S1.

HepG2 and HEK-293 [1] = assay: Autofluorescence assays, all channels and culture conditions taken together; settings: for autofluorescence activity specific to one cell culture: among chemicals active within wavelengths, Fig. 8
Protocol: as §1
(§3) HepG2 and HEK-293 cells were purchased from American Type Culture Collection (ATCC, Manassas, VA). HepG2 cells were cultured in Eagle’s Minimum Essential Medium (EMEM, ATCC) and HEK-293 cells in Dulbecco’s Modified Eagle’s Medium (DMEM, Life Technologies Corporation, Carlsbad, CA), and both supplemented with 10% Hyclone’s Fetal Bovine Serum (ThermoFisher Scientific, Waltham, MA), and 100 U/ml penicillin-100 µg/ml streptomycin (Life Technologies Corporation). Cells were cultured and maintained at 37 °C under a humidified atmosphere and 5% CO2.
(§4) HepG2 and HEK-293 cells were dispensed at 2,000/well in 5 µL of the culture medium into 1,536-well black/clear plates using a Multidrop™ Combi Reagent dispenser (ThermoFisher Scientific). In parallel, 5 µL/well of culture medium only were dispensed into 1,536-well black/clear plates. […] After respective incubation times, 23 nL of the compounds dissolved in DMSO, positive controls (fluorescein-green, triamterene-blue, and rose bengal-red) were transferred to the assay plates using Pintool station (Wako, San Diego, CA). […] The fluorescence intensity was measured using an Envision plate reader (Perkin Elmer, Waltham, MA) by using excitation/emission filters at 485/535 nm, 405/460 nm, and 540/590 nm for green, blue and red channels respectively. Data were expressed as relative fluorescence units. Each test compound was measured at 5 concentrations ranging from to 29 nM to 92 µM.
(§5) Analysis of compound concentration-response data was performed as previously described. Briefly, raw plate reads for each titration point were first normalized and then corrected by applying a pattern correction algorithm using compound-free control plates (DMSO plates)[22]. […] When normalizing to the positive control, the positive control response was set to 100% and negative control to 0% as follows: Activity(%)=([Vc−VDMSO]/[Vpos−VDMSO])×100, where Vc denotes the compound well values, Vpos denotes the median value of the positive control wells, and VDMSO denotes the median values of the DMSO-only wells. […] The following formula was used to normalize data to the negative control: Activity(%)=([Vc−VDMSO]/[VDMSO])×100 Concentration-response titration points for each compound were fitted to the Hill equation and concentrations of half-maximal activity (AC50) and maximal response (efficacy) values were calculated. Concentration response curves were designated as class 1–4 based on the quality of the fit, the number of points above background, and the response efficacy, as previously described (summarized in Supporting Information Table S1)[18],[20].
Finally, for autofluorescence assays, to avoid indications of generalized cell stress without specific biomolecular interactions, only AC50 below the burst cutoff defined in[23] were considered. Indeed, activity above this limit may result from triggering cell stress pathways, chemical reactivity, physico-chemical disruption of proteins or membranes, or broad low-affinity non-covalent interactions and not from a specific technology interference reaction. […]

HepG2 and HEK-293 [2] = assay: Autofluorescence assays, green channel, the four conditions taken together; settings: for autofluorescence activity: example structures of SOM clusters 209, 173, 117
Protocol: (§6) Three assay platforms were applied to analyze luciferase and fluorescence interference patterns using the Tox21 chemical screening library.
as §3
(§7) HepG2 and HEK-293 cells were dispensed at 2,000/well in 5 µL of the culture medium into 1,536-well black/clear plates using a Multidrop™ Combi Reagent dispenser (ThermoFisher Scientific). In parallel, 5 µL/well of culture medium only were dispensed into 1,536-well black/clear plates. […] After respective incubation times, 23 nL of the compounds dissolved in DMSO, positive controls (fluorescein-green, triamterene-blue, and rose bengal-red) were transferred to the assay plates using Pintool station (Wako, San Diego, CA). […] Data were expressed as relative fluorescence units.
as §5
Finally, for autofluorescence assays, to avoid indications of generalized cell stress without specific biomolecular interactions, only AC50 below the burst cutoff defined in[23] were considered. […]

HepG2 and HEK-293 [3] = assay: Autofluorescence assays, blue channel, the four conditions taken together (HepG2/HEK-293, cell-based/cell-free); settings: for autofluorescence activity specific to culture condition: Fig. 8A
Protocol: as §6, §3, §7, §5
as §2, with “stress.” for “stress. The distribution of the curve classes for active chemicals is presented in Supporting Information Fig. S1.”

HepG2 cells = assay: Autofluorescence qHTS, HepG2 cell based, green channel; settings: Homo sapiens, green spectrum, unit inferred
Protocol: as §1
(§8) HepG2 and HEK-293 cells were purchased from American Type Culture Collection (ATCC, Manassas, VA). […]
(§9) HepG2 and HEK-293 cells were dispensed at 2,000/well in 5 µL of the culture medium into 1,536-well black/clear plates using a Multidrop™ Combi Reagent dispenser (ThermoFisher Scientific). […] The fluorescence intensity was measured using an Envision plate reader (Perkin Elmer, Waltham, MA) by using excitation/emission filters at 485/535 nm, 405/460 nm, and 540/590 nm for green, blue and red channels respectively. Data were expressed as relative fluorescence units. Each test compound was measured at 5 concentrations ranging from to 29 nM to 92 µM.
(§10) Analysis of compound concentration-response data was performed as previously described. Briefly, raw plate reads for each titration point were first normalized and then corrected by applying a pattern correction algorithm using compound-free control plates (DMSO plates)[22]. […]

HEK-293 cells = assay: Autofluorescence qHTS, HEK-293 cell based, green channel; settings: Homo sapiens; Hek293 cell based, green spectrum; unit inferred
Protocol: as §1, §8, §9, §10

HepG2 and HEK-293 [4] = assay: Autofluorescence assays, red channel, the four conditions taken together
Protocol: as §1, §3, §4
as §5, with “Concentration response curves were designated as class 1–4 based on the quality of the fit, the number of points above background, and the response efficacy, as previously described (summarized in Supporting Information Table S1)[18],[20].” left out

[5] = all four assay conditions, read-out: AC50s

T1 sequence (P08659 whole entry): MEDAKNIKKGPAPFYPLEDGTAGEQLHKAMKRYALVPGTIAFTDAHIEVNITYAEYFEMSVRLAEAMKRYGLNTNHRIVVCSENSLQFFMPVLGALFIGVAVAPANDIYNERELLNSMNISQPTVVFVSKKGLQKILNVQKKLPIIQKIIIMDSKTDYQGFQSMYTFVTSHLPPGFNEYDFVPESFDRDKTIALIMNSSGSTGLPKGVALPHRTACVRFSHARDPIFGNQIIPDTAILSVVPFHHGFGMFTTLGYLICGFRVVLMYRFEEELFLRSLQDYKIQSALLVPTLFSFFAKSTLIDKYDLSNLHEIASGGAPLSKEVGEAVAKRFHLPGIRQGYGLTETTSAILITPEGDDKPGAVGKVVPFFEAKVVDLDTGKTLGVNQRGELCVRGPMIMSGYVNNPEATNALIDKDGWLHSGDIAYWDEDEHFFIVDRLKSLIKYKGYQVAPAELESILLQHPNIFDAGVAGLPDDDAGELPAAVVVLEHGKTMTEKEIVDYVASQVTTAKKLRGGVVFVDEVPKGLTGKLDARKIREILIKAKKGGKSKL

O=C(O)c1cccc(-c2noc(-c3ccccc3F)n2)c1 [PTC-124, Ataluren]
response curve class (firefly-Luciferase): −1.1 | IC50 (firefly-Luciferase; estimated, based on triplicate measurements, read-out: IC50): < 20 nM | AC50 (firefly-Luciferase; set1): 0.00871 µM | AC50 (firefly-Luciferase; set2): 0.0195 µM | AC50 (firefly-Luciferase; set3): 0.0195 µM

Nc1ccc(N)c2ccccc12 [Chemical 79]
autofluorescence activity specific to one cell culture (HepG2 and HEK-293 [1]): active specifically on the HepG2 culture

O=C1CCCO1 [Chemical 32]
autofluorescence activity (HepG2 and HEK-293 [2]): Active | autofluorescence activity (HepG2 and HEK-293 [1]; green and red channel, SOM cluster 209): autofluorescent in both the green and red channel

triamterene [Tiramterene]
response curve class (HepG2 and HEK-293 [3]; all four assay conditions): 2.1 | EC50 (HepG2 and HEK-293 [3]; [5]): < 40000 nM | efficacy (HepG2 and HEK-293 [3]; incomplete response): > 80%

OC[C@H]1O[C@@H]2O[C@H]3[C@H](O)[C@@H](O)[C@@H](O[C@H]4[C@H](O)[C@@H](O)[C@@H](O[C@H]5[C@H](O)[C@@H](O)[C@@H](O[C@H]6[C@H](O)[C@@H](O)[C@@H](O[C@H]7[C@H](O)[C@@H](O)[C@@H](O[C@H]8[C@H](O)[C@@H](O)[C@@H](O[C@H]1[C@H](O)[C@H]2O)O[C@@H]8CO)O[C@@H]7CO)O[C@@H]6CO)O[C@@H]5CO)O[C@@H]4CO)O[C@@H]3CO [Chemical 58]
autofluorescence activity specific to culture condition (HepG2 and HEK-293 [3]): active only in the HEK-293 cell-free condition

CN(C)N=Nc1nc[nH]c1C(N)=O [Chemical 63]
autofluorescence activity specific to one cell culture (HepG2 and HEK-293 [1]): active specifically on the HepG2 culture

CCCNC(=O)NS(=O)(=O)c1ccc(Cl)cc1 [Chemical 49]
autofluorescence activity specific to one cell culture (HepG2 and HEK-293 [1]): active only on HEK-293

O=C1OC2(c3ccc(O)cc3Oc3cc(O)ccc32)c2ccccc21 [fluorescein]
AC50 (HepG2 cells): 3160 nM | AC50 (HEK-293 cells): 2820 nM | curve class (HepG2 and HEK-293 [2]; all four assay conditions): 1.1 | EC50 (HepG2 and HEK-293 [2]; [5]): < 4000 nM

Nc1ccc(N)cc1 [Chemical 77]
autofluorescence activity specific to one cell culture (HepG2 and HEK-293 [1]): active only on HEK-293

CC(CO)NC(=O)C1C=C2c3cccc4[nH]cc(c34)CC2N(C)C1 (centres unmarked) [Chemical 36]
autofluorescence activity (HepG2 and HEK-293 [2]): actives

O=C1CCCCC1 [Chemical 59]
autofluorescence activity specific to culture condition (HepG2 and HEK-293 [3]): active only in the HEK-293 cell-free condition

O=C(O)CCCc1ccc(N(CCCl)CCCl)cc1 [Chemical 44]
autofluorescence activity (HepG2 and HEK-293 [4]; example structures of SOM clusters 194 (219 in Fig. 6) and 143): actives

rose bengal
response curve class (HepG2 and HEK-293 [4]; all four assay conditions): 2.1 | EC50 (HepG2 and HEK-293 [4]; [5]): < 12000 nM | efficacy (HepG2 and HEK-293 [4]; incomplete response): > 80%

[O-][n+]1ccccc1S [13463-41-7]
IC50 (firefly-Luciferase; after filtering, no unit printed in the sheet, read-out: Luc_IC50): 481 nM
